# Laboratory results: the supplement of paper PMC10307832
# Compound: CC1=CC(=CC=C1)NC2=NC(=CS2)C3=CC=NC=C3 + CC(=O)Nc1cccc(-n2c(=O)n(C3CC3)c(=O)c3c(Nc4ccc(I)cc4F)n(C)c(=O)c(C)c32)c1 [Trametinib] (partner 0.02 µM)
# Assay: relative viability (nuclei count vs DMSO), 5 days (fraction); higher = more cells survive
# Conditions: first compound 8 µM
# In short: (§1)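 Dosing by pin tool came one day after lung cancer cell lines were seeded in 1536-well plates, using either one drug or a fixed anchor-drug dose plus five library-drug doses (not always all listed) in √10 steps. After 5 days, nuclei were counted on 4× images. Relative viability is treated-well nuclei count divided by vehicle-well nuclei count, and values are medians of duplicate plates.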
row,Cell Line,relative viability
1,CAL-12T,0.305
2,NCI-H1944,0.357
3,NCI-H2170,0.668
4,SK-MES-1,0.423

# Compound: CC1=CC(=CC=C1)NC2=NC(=CS2)C3=CC=NC=C3 + Nc1ncn([C@H]2C[C@H](O)[C@@H](CO)O2)c(=O)n1 [Decitabine] (partner 2 µM)
# Assay: as above
# Conditions: first compound 0.08 µM
# In short: as §1
row,Cell Line,relative viability
1,NCI-H522,0.702
2,NCI-H838,0.458
3,NCI-H1651,0.558
4,NCI-H1734,0.446
5,NCI-H2009,0.342
6,LU99A,0.889
7,PC-14,0.174
8,LCLC-103H,0.72
9,NCI-H596,0.923
10,EMC-BAC-2,0.916
11,NCI-H2087,0.264
12,HCC-366,0.329
13,NCI-H647,0.3
14,LK-2,0.298
15,NCI-H2126,0.525
16,NCI-H2342,0.691
17,NCI-H1793,0.513

row,Cell Line,relative viability
1,H3255,0.576
2,COR-L23,0.404
3,COR-L 105,0.648
4,LOU-NH91,0.744
5,ChaGo-K-1,0.528
6,NCI-H358,0.233
7,NCI-H3122,0.366
8,HOP-62,0.219
9,A549,0.281
10,SW 900,0.443
11,NCI-H1648,0.345
12,NCI-H1395,0.666
13,NCI-H1944,0.367
14,NCI-H2170,0.426
15,ABC-1,1.01
16,SK-MES-1,0.37

# Same assay, conditions: first compound 0.253 µM
row,Cell Line,relative viability
1,NCI-H522,0.63
2,NCI-H838,0.473
3,NCI-H1651,0.55
4,NCI-H1734,0.417
5,NCI-H2009,0.425
6,LU99A,0.939
7,PC-14,0.186
8,LCLC-103H,0.664
9,NCI-H596,1.02
10,NCI-H2087,0.293
11,HCC-366,0.357
12,NCI-H647,0.437
13,LK-2,0.273
14,NCI-H2126,0.56
15,NCI-H2342,0.773
16,NCI-H1793,0.481
17,H3255,0.506
18,COR-L23,0.378
19,COR-L 105,0.691
20,LOU-NH91,0.797
21,ChaGo-K-1,0.528
22,NCI-H358,0.22
23,NCI-H3122,0.443
24,HOP-62,0.218
25,A549,0.173
26,SW 900,0.381
27,NCI-H1648,0.42
28,NCI-H1944,0.426
29,NCI-H2170,0.399
30,SK-MES-1,0.361

# Same assay, conditions: first compound 0.8 µM
row,Cell Line,relative viability
1,NCI-H522,0.708
2,NCI-H838,0.501
3,NCI-H1651,0.66
4,NCI-H1734,0.457
5,NCI-H2009,0.385
6,LU99A,0.787
7,PC-14,0.187
8,LCLC-103H,0.672
9,NCI-H596,0.836
10,EMC-BAC-2,0.91
11,NCI-H2087,0.281
12,HCC-366,0.308
13,NCI-H647,0.443
14,LK-2,0.304
15,NCI-H2126,0.559
16,NCI-H2342,0.657
17,NCI-H1793,0.489

row,Cell Line,relative viability
1,H3255,0.581
2,COR-L23,0.429
3,COR-L 105,0.624
4,LOU-NH91,0.728
5,ChaGo-K-1,0.519
6,NCI-H358,0.208
7,NCI-H3122,0.449
8,HOP-62,0.261
9,A549,0.284
10,SW 900,0.353
11,NCI-H1648,0.496
12,NCI-H1395,0.685
13,NCI-H1944,0.399
14,NCI-H2170,0.437
15,ABC-1,1.23
16,SK-MES-1,0.367

# Same assay, conditions: first compound 2.53 µM
row,Cell Line,relative viability
1,NCI-H522,0.801
2,NCI-H838,0.448
3,NCI-H1651,0.475
4,NCI-H1734,0.507
5,NCI-H2009,0.411
6,LU99A,0.709
7,PC-14,0.177
8,LCLC-103H,0.665
9,NCI-H596,0.899
10,EMC-BAC-2,0.918
11,NCI-H2087,0.263
12,HCC-366,0.309
13,NCI-H647,0.365
14,LK-2,0.204
15,NCI-H2126,0.572
16,NCI-H2342,0.77
17,NCI-H1793,0.472

row,Cell Line,relative viability
1,H3255,0.601
2,COR-L23,0.379
3,COR-L 105,0.572
4,LOU-NH91,0.825
5,ChaGo-K-1,0.522
6,NCI-H358,0.249
7,NCI-H3122,0.467
8,HOP-62,0.244
9,A549,0.275
10,SW 900,0.389
11,NCI-H1648,0.356
12,NCI-H1395,0.677
13,NCI-H1944,0.361
14,NCI-H2170,0.43
15,ABC-1,0.933
16,SK-MES-1,0.373

# Same assay, conditions: first compound 8 µM
row,Cell Line,relative viability
1,NCI-H522,0.677
2,NCI-H838,0.457
3,NCI-H1651,0.628
4,NCI-H1734,0.463
5,NCI-H2009,0.376
6,LU99A,0.879
7,PC-14,0.217
8,LCLC-103H,0.573
9,NCI-H596,0.91
10,EMC-BAC-2,0.884
11,NCI-H2087,0.238
12,HCC-366,0.263
13,NCI-H647,0.436
14,LK-2,0.563
15,NCI-H2126,0.578
16,NCI-H2342,0.761
17,NCI-H1793,0.238
18,H3255,0.553
19,COR-L23,0.388
20,COR-L 105,0.533
21,LOU-NH91,0.78
22,ChaGo-K-1,0.499
23,NCI-H358,0.225
24,NCI-H3122,0.522
25,HOP-62,0.247
26,A549,0.256
27,SW 900,0.441
